Measurements published in PMC12454493, “Insight on novel sulfamoylphenyl pyrazole derivatives as anticancer carbonic anhydrase inhibitors” (Molecular Diversity, 2024).
Several values for one entry are separate records, joined by “and”; a condition that tells them apart may be missing. Equal values may be shown once.

How the values were obtained:
MDA-MB-435 = test: NCI-60 one-dose SRB screen (Melanoma); assay type: cell-based; settings: Homo sapiens, single dose 10 µM, 48 h, read-out: Growth inhibition percent (GI %)
M14 = test: NCI-60 one-dose SRB screen (Melanoma); assay type: cell-based; settings: Homo sapiens, single dose 10 µM, 48 h, read-out: Growth inhibition percent (GI %)
SK-MEL-5 = test: NCI-60 one-dose SRB screen (Melanoma); assay type: cell-based; settings: Homo sapiens, single dose 10 µM, 48 h, read-out: Growth inhibition percent (GI %)
SK-MEL-2 = test: NCI-60 one-dose SRB screen (Melanoma); assay type: cell-based; settings: Homo sapiens, single dose 10 µM, 48 h, read-out: Growth inhibition percent (GI %)
UACC-257 = test: NCI-60 one-dose SRB screen (Melanoma); assay type: cell-based; settings: Homo sapiens, single dose 10 µM, 48 h, read-out: Growth inhibition percent (GI %)
SK-MEL-28 = test: NCI-60 one-dose SRB screen (Melanoma); assay type: cell-based; settings: Homo sapiens, single dose 10 µM, 48 h, read-out: Growth inhibition percent (GI %)
MALME-3M = test: NCI-60 one-dose SRB screen (Melanoma); assay type: cell-based; settings: Homo sapiens, single dose 10 µM, 48 h, read-out: Growth inhibition percent (GI %)
UACC-62 = test: NCI-60 one-dose SRB screen (Melanoma); assay type: cell-based; settings: Homo sapiens, single dose 10 µM, 48 h, read-out: Growth inhibition percent (GI %)
hCA IX = hCA IX (Homo sapiens, UniProt Q16790); test: CA inhibitory activity, spectrophotometric p-NPA assay; assay type: biochemical; settings: for IC50: p-NPA substrate, pH 7.5, 25 °C, triplicate, read-out: IC50 (µM) ± SD hCA IX
TK-10 = test: NCI-60 one-dose SRB screen (Renal Cancer); assay type: cell-based; settings: Homo sapiens, single dose 10 µM, 48 h, read-out: Growth inhibition percent (GI %)
RXF 393 = test: NCI-60 one-dose SRB screen (Renal Cancer); assay type: cell-based; settings: Homo sapiens, single dose 10 µM, 48 h, read-out: Growth inhibition percent (GI %)
A498 = test: NCI-60 one-dose SRB screen (Renal Cancer); assay type: cell-based; settings: Homo sapiens, single dose 10 µM, 48 h, read-out: Growth inhibition percent (GI %)
SN12C = test: NCI-60 one-dose SRB screen (Renal Cancer); assay type: cell-based; settings: Homo sapiens, single dose 10 µM, 48 h, read-out: Growth inhibition percent (GI %)
ACHN = test: NCI-60 one-dose SRB screen (Renal Cancer); assay type: cell-based; settings: Homo sapiens, single dose 10 µM, 48 h, read-out: Growth inhibition percent (GI %)
UO-31 = test: NCI-60 one-dose SRB screen (Renal Cancer); assay type: cell-based; settings: Homo sapiens, single dose 10 µM, 48 h, read-out: Growth inhibition percent (GI %)
CAKI-1 = test: NCI-60 one-dose SRB screen (Renal Cancer); assay type: cell-based; settings: Homo sapiens, single dose 10 µM, 48 h, read-out: Growth inhibition percent (GI %)
786-0 = test: NCI-60 one-dose SRB screen (Renal Cancer); assay type: cell-based; settings: Homo sapiens, single dose 10 µM, 48 h, read-out: Growth inhibition percent (GI %)
COLO 205 = test: NCI-60 one-dose SRB screen (Colon Cancer); assay type: cell-based; settings: Homo sapiens, single dose 10 µM, 48 h, read-out: Growth inhibition percent (GI %)
HCC-2998 = test: NCI-60 one-dose SRB screen (Colon Cancer); assay type: cell-based; settings: Homo sapiens, single dose 10 µM, 48 h, read-out: Growth inhibition percent (GI %)
HT29 = test: NCI-60 one-dose SRB screen (Colon Cancer); assay type: cell-based; settings: Homo sapiens, HT-29, single dose 10 µM, 48 h, read-out: Growth inhibition percent (GI %)
SW-620 = test: NCI-60 one-dose SRB screen (Colon Cancer); assay type: cell-based; settings: Homo sapiens, single dose 10 µM, 48 h, read-out: Growth inhibition percent (GI %)
HCT-15 = test: NCI-60 one-dose SRB screen (Colon Cancer); assay type: cell-based; settings: Homo sapiens, single dose 10 µM, 48 h, read-out: Growth inhibition percent (GI %)
KM12 = test: NCI-60 one-dose SRB screen (Colon Cancer); assay type: cell-based; settings: Homo sapiens, single dose 10 µM, 48 h, read-out: Growth inhibition percent (GI %)
HCT-116 = test: NCI-60 one-dose SRB screen (Colon Cancer); assay type: cell-based; settings: Homo sapiens, single dose 10 µM, 48 h, read-out: Growth inhibition percent (GI %)
NCI-H23 = test: NCI-60 one-dose SRB screen (Non-Small Cell Lung Cancer); assay type: cell-based; settings: Homo sapiens, single dose 10 µM, 48 h, read-out: Growth inhibition percent (GI %)
NCI-H522 = test: as above; assay type: cell-based; settings: Homo sapiens, single dose 10 µM, 48 h, read-out: Growth inhibition percent (GI %)
NCI-H226 = test: as above; assay type: cell-based; settings: Homo sapiens, single dose 10 µM, 48 h, read-out: Growth inhibition percent (GI %)
A549/ATCC = test: as above; assay type: cell-based; settings: Homo sapiens, single dose 10 µM, 48 h, read-out: Growth inhibition percent (GI %)
NCI-H460 = test: as above; assay type: cell-based; settings: Homo sapiens, single dose 10 µM, 48 h, read-out: Growth inhibition percent (GI %)
NCI-H322M = test: as above; assay type: cell-based; settings: Homo sapiens, single dose 10 µM, 48 h, read-out: Growth inhibition percent (GI %)
EKVX = test: as above; assay type: cell-based; settings: Homo sapiens, single dose 10 µM, 48 h, read-out: Growth inhibition percent (GI %)
HOP-92 = test: as above; assay type: cell-based; settings: Homo sapiens, single dose 10 µM, 48 h, read-out: Growth inhibition percent (GI %)
HOP-62 = test: as above; assay type: cell-based; settings: Homo sapiens, single dose 10 µM, 48 h, read-out: Growth inhibition percent (GI %)
SNB-75 = test: NCI-60 one-dose SRB screen (CNS Cancer); assay type: cell-based; settings: Homo sapiens, single dose 10 µM, 48 h, read-out: Growth inhibition percent (GI %)
SF-268 = test: NCI-60 one-dose SRB screen (CNS Cancer); assay type: cell-based; settings: Homo sapiens, single dose 10 µM, 48 h, read-out: Growth inhibition percent (GI %)
SF-539 = test: NCI-60 one-dose SRB screen (CNS Cancer); assay type: cell-based; settings: Homo sapiens, single dose 10 µM, 48 h, read-out: Growth inhibition percent (GI %)
SNB-19 = test: NCI-60 one-dose SRB screen (CNS Cancer); assay type: cell-based; settings: Homo sapiens, single dose 10 µM, 48 h, read-out: Growth inhibition percent (GI %)
U251 = test: NCI-60 one-dose SRB screen (CNS Cancer); assay type: cell-based; settings: Homo sapiens, U-251, single dose 10 µM, 48 h, read-out: Growth inhibition percent (GI %)
SF-295 = test: NCI-60 one-dose SRB screen (CNS Cancer); assay type: cell-based; settings: Homo sapiens, single dose 10 µM, 48 h, read-out: Growth inhibition percent (GI %)
hCA XII = hCA XII (Homo sapiens, UniProt O43570); test: CA inhibitory activity, spectrophotometric p-NPA assay; assay type: biochemical; settings: for IC50: p-NPA substrate, pH 7.5, 25 °C, triplicate, read-out: IC50 (µM) ± SD hCA XII
Chain of hCA XII (O43570 25-354): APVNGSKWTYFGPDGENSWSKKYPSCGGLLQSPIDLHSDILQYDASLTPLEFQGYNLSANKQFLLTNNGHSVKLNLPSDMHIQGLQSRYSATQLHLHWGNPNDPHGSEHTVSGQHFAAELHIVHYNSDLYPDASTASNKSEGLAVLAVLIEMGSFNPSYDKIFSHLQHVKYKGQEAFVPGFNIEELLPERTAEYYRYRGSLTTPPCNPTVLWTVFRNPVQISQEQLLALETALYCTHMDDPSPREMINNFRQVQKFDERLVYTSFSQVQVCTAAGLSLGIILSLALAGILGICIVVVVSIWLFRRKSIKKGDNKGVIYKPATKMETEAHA
Description: The software used to calculate CA IC50 along with statistical analysis of the results is GraphPad Prism 9.00. Results were estimated by using one-way ANOVA and the Bonferroni’s multiple comparisons posthoc test was performed (P < 0.05) [46]
Carbonic anhydrase inhibitory activity:
The spectrophotometric assay was conducted in HEPES-Tris buffer, NaCl of pH 7.5 (20mM) at 25◦C. Each inhibitory well-consisted of 50 μL of assay buffer solution, 20 μL of hCA enzyme solution (20 ng/μL in Assay Buffer), and 50 μL of test compound in HPLC grade DMSO (maintain 10% of the final concentration). The mixture solution was
Substrate p-nitrophenyl acetate (p-NPA) (0.7mM) was prepared in HPLC grade methanol and the reaction was started by adding 20 μL to a well in a 96-well-plate. The amount of product formed was measured for 30 min continuously at 1 min intervals at 400 nm in a 96-well-plate using xMARK microplate spectrophotometer, Bio-Rad (USA). The activity of the controlled compound was taken as 100%. All experiments were carried out in triplicates of each used concentration, and results are represented as a

RPMI-8226 = test: NCI-60 one-dose SRB screen (Leukemia); assay type: cell-based; settings: Homo sapiens, single dose 10 µM, 48 h, read-out: Growth inhibition percent (GI %)
MOLT-4 = test: NCI-60 one-dose SRB screen (Leukemia); assay type: cell-based; settings: Homo sapiens, single dose 10 µM, 48 h, read-out: Growth inhibition percent (GI %)
CCRF-CEM = test: NCI-60 one-dose SRB screen (Leukemia); assay type: cell-based; settings: Homo sapiens, single dose 10 µM, 48 h, read-out: Growth inhibition percent (GI %)
SR = test: NCI-60 one-dose SRB screen (Leukemia); assay type: cell-based; settings: Homo sapiens, single dose 10 µM, 48 h, read-out: Growth inhibition percent (GI %)
K-562 = test: NCI-60 one-dose SRB screen (Leukemia); assay type: cell-based; settings: Homo sapiens, K562, single dose 10 µM, 48 h, read-out: Growth inhibition percent (GI %)
HL-60(TB) = test: NCI-60 one-dose SRB screen (Leukemia); assay type: cell-based; settings: Homo sapiens, single dose 10 µM, 48 h, read-out: Growth inhibition percent (GI %)

## COc1ccc(-c2nn(-c3ccc(S(N)(=O)=O)cc3)cc2C(=O)OCC(=O)Nc2nnc(S(N)(=O)=O)s2)cc1 [Compound 6c, 2-Oxo-2-[(5-sulfamoyl-1,3,4-thiadiazol-2-yl)amino] ethyl 3-(4-methoxyphenyl)-1-(4-sulfamoylphenyl)-1H-pyrazole-4-carboxylate]
MDA-MB-435
  inhibition at 10 µM: < 5%
M14
  inhibition at 10 µM: < 5%
SK-MEL-5
  inhibition at 10 µM: < 5%
SK-MEL-2
  inhibition at 10 µM: < 5%
UACC-257
  inhibition at 10 µM: < 5%
SK-MEL-28
  inhibition at 10 µM: < 5%
MALME-3M
  inhibition at 10 µM: 5.67%
UACC-62
  inhibition at 10 µM: 9.09%
hCA IX
  Ki: 73 nM
  IC50: 0.07 µM and 0.073 µM
TK-10
  inhibition at 10 µM: < 5%
RXF 393
  inhibition at 10 µM: < 5%
A498
  inhibition at 10 µM: 7.75%
SN12C
  inhibition at 10 µM: < 5%
ACHN
  inhibition at 10 µM: < 5%
UO-31
  inhibition at 10 µM: 14.9%
CAKI-1
  inhibition at 10 µM: 21.5%
786-0
  inhibition at 10 µM: < 5%
COLO 205
  inhibition at 10 µM: < 5%
HCC-2998
  inhibition at 10 µM: < 5%
HT29
  inhibition at 10 µM: < 5%
SW-620
  inhibition at 10 µM: < 5%
HCT-15
  inhibition at 10 µM: < 5%
KM12
  inhibition at 10 µM: < 5%
HCT-116
  inhibition at 10 µM: < 5%
NCI-H23
  inhibition at 10 µM: < 5%
NCI-H522
  inhibition at 10 µM: 5.91%
NCI-H226
  inhibition at 10 µM: 8.69%
A549/ATCC
  inhibition at 10 µM: < 5%
NCI-H460
  inhibition at 10 µM: < 5%
NCI-H322M
  inhibition at 10 µM: < 5%
EKVX
  inhibition at 10 µM: 11.2%
HOP-92
  inhibition at 10 µM: 27.4%
HOP-62
  inhibition at 10 µM: < 5%
SNB-75
  inhibition at 10 µM: 13.4%
SF-268
  inhibition at 10 µM: < 5%
SF-539
  inhibition at 10 µM: < 5%
SNB-19
  inhibition at 10 µM: < 5%
U251
  inhibition at 10 µM: < 5%
SF-295
  inhibition at 10 µM: < 5%
hCA XII
  Ki: 95 nM
  IC50: 0.09 µM and 0.095 µM
other
  melting point: 240 to 241 °C
RPMI-8226
  inhibition at 10 µM: < 5%
MOLT-4
  inhibition at 10 µM: < 5%
CCRF-CEM
  inhibition at 10 µM: < 5%
SR
  inhibition at 10 µM: < 5%
K-562
  inhibition at 10 µM: < 5%
HL-60(TB)
  inhibition at 10 µM: < 5%

## Cc1ccc(-c2nn(-c3ccc(S(N)(=O)=O)cc3)cc2C(=O)NNC(N)=S)cc1 [Compound 9b, 2-[1-(4-Sulfamoylphenyl)-3-(p-tolyl)-1H-pyrazole-4-carbonyl] hydrazine-1-carbothioamide]
MDA-MB-435
  inhibition at 10 µM: < 5%
M14
  inhibition at 10 µM: < 5%
SK-MEL-5
  inhibition at 10 µM: < 5%
SK-MEL-2
  inhibition at 10 µM: < 5%
UACC-257
  inhibition at 10 µM: < 5%
SK-MEL-28
  inhibition at 10 µM: < 5%
MALME-3M
  inhibition at 10 µM: < 5%
UACC-62
  inhibition at 10 µM: 5.9%
hCA IX
  IC50: 0.33 µM and 0.339 µM
TK-10
  inhibition at 10 µM: < 5%
RXF 393
  inhibition at 10 µM: < 5%
A498
  inhibition at 10 µM: < 5%
SN12C
  inhibition at 10 µM: < 5%
ACHN
  inhibition at 10 µM: < 5%
UO-31
  inhibition at 10 µM: < 5%
CAKI-1
  inhibition at 10 µM: 7.05%
786-0
  inhibition at 10 µM: < 5%
COLO 205
  inhibition at 10 µM: < 5%
HCC-2998
  inhibition at 10 µM: < 5%
HT29
  inhibition at 10 µM: < 5%
SW-620
  inhibition at 10 µM: < 5%
HCT-15
  inhibition at 10 µM: < 5%
KM12
  inhibition at 10 µM: < 5%
HCT-116
  inhibition at 10 µM: < 5%
NCI-H23
  inhibition at 10 µM: < 5%
NCI-H522
  inhibition at 10 µM: < 5%
NCI-H226
  inhibition at 10 µM: < 5%
A549/ATCC
  inhibition at 10 µM: < 5%
NCI-H460
  inhibition at 10 µM: < 5%
NCI-H322M
  inhibition at 10 µM: < 5%
EKVX
  inhibition at 10 µM: < 5%
HOP-92
  inhibition at 10 µM: < 5%
HOP-62
  inhibition at 10 µM: < 5%
SNB-75
  inhibition at 10 µM: 6.3%
SF-268
  inhibition at 10 µM: < 5%
SF-539
  inhibition at 10 µM: 5.95%
SNB-19
  inhibition at 10 µM: < 5%
U251
  inhibition at 10 µM: < 5%
SF-295
  inhibition at 10 µM: < 5%
hCA XII
  IC50: 0.33 µM and 0.335 µM
other
  melting point: 178 to 180 °C
RPMI-8226
  inhibition at 10 µM: < 5%
MOLT-4
  inhibition at 10 µM: < 5%
CCRF-CEM
  inhibition at 10 µM: 19.6%
SR
  inhibition at 10 µM: < 5%
K-562
  inhibition at 10 µM: < 5%
HL-60(TB)
  inhibition at 10 µM: < 5%
